# Results: PMC4512239 (Clinical cancer research : an official journal of the …, 2015)
# Assay: phase I safety and tolerability
# Format: in vivo, human
smiles,measurement,setting,value
CNC(=O)c1cccc(-c2ccc3c(N4CCOC[C@@H]4C)nc(N4CCOC[C@@H]4C)nc3n2)c1 [AZD2014],grade 3 or above hypercholesterolemia or triglyceridemia,50 mg BD cohort,no grade 3 or above hypercholesterolemia or triglyceridemia was seen
same,dose limiting toxicities,"50 mg BD starting dose, 6 patients",no DLTs
same,"nausea, mucositis, diarrhea and vomiting: share of grade 3 or 4","50 mg BD, Part A and Part B",less than 5%
same,rash: share of grade 3 or higher,"50 mg BD, Part A and Part B",less than 5%
same,evaluable patients with dose limiting toxicities,70 mg BD,2/4
same,patients with dose limiting toxicities,100 mg BD,4/4
same,"Anemia, Any grade",All 50mg BD solution (N=41),7 (17.1) Number (%) of patients
same,"Anemia, CTCAE grade 1-2",All 50mg BD solution (N=41),7 (17.1) Number (%) of patients
same,"Anemia, CTCAE grade >=3",All 50mg BD solution (N=41),0 Number (%) of patients
same,"Back pain, Any grade",All 50mg BD solution (N=41),7 (17.1) Number (%) of patients
same,"Back pain, CTCAE grade 1-2",All 50mg BD solution (N=41),6 (14.6) Number (%) of patients
same,"Back pain, CTCAE grade >=3",All 50mg BD solution (N=41),1 (2.4) Number (%) of patients
same,"Constipation, Any grade",All 50mg BD solution (N=41),13 (31.7) Number (%) of patients
same,"Constipation, CTCAE grade 1-2",All 50mg BD solution (N=41),13 (31.7) Number (%) of patients
same,"Constipation, CTCAE grade >=3",All 50mg BD solution (N=41),0 Number (%) of patients
same,"Cough, Any grade",All 50mg BD solution (N=41),8 (19.5) Number (%) of patients
same,"Cough, CTCAE grade 1-2",All 50mg BD solution (N=41),8 (19.5) Number (%) of patients
same,"Cough, CTCAE grade >=3",All 50mg BD solution (N=41),0 Number (%) of patients
same,"Decreased appetite, Any grade",All 50mg BD solution (N=41),17 (41.5) Number (%) of patients
same,"Decreased appetite, CTCAE grade 1-2",All 50mg BD solution (N=41),17 (41.5) Number (%) of patients
same,"Decreased appetite, CTCAE grade >=3",All 50mg BD solution (N=41),0 Number (%) of patients
same,"Diarrhea, Any grade",All 50mg BD solution (N=41),17 (41.5) Number (%) of patients
same,"Diarrhea, CTCAE grade 1-2",All 50mg BD solution (N=41),17 (41.5) Number (%) of patients
same,"Diarrhea, CTCAE grade >=3",All 50mg BD solution (N=41),0 Number (%) of patients
same,"Dry mouth, Any grade",All 50mg BD solution (N=41),8 (19.5) Number (%) of patients
same,"Dry mouth, CTCAE grade 1-2",All 50mg BD solution (N=41),8 (19.5) Number (%) of patients
same,"Dry mouth, CTCAE grade >=3",All 50mg BD solution (N=41),0 Number (%) of patients
same,"Dyspnea, Any grade",All 50mg BD solution (N=41),7 (17.1) Number (%) of patients
same,"Dyspnea, CTCAE grade 1-2",All 50mg BD solution (N=41),5 (12.2) Number (%) of patients
same,"Dyspnea, CTCAE grade >=3",All 50mg BD solution (N=41),2 (4.9) Number (%) of patients
same,"Fatigue, Any grade",All 50mg BD solution (N=41),32 (78.0) Number (%) of patients
same,"Fatigue, CTCAE grade 1-2",All 50mg BD solution (N=41),30 (73.2) Number (%) of patients
same,"Fatigue, CTCAE grade >=3",All 50mg BD solution (N=41),2 (4.9) Number (%) of patients
same,"Hypokalemia, Any grade",All 50mg BD solution (N=41),6 (14.6) Number (%) of patients
same,"Hypokalemia, CTCAE grade 1-2",All 50mg BD solution (N=41),5 (12.2) Number (%) of patients
same,"Hypokalemia, CTCAE grade >=3",All 50mg BD solution (N=41),1 (2.4) Number (%) of patients
same,"Lower respiratory tract infection, Any grade",All 50mg BD solution (N=41),7 (17.1) Number (%) of patients
same,"Lower respiratory tract infection, CTCAE grade 1-2",All 50mg BD solution (N=41),6 (14.6) Number (%) of patients
same,"Lower respiratory tract infection, CTCAE grade >=3",All 50mg BD solution (N=41),1 (2.4) Number (%) of patients
same,"Mucositis, Any grade",All 50mg BD solution (N=41),20 (48.8) Number (%) of patients
same,"Mucositis, CTCAE grade 1-2",All 50mg BD solution (N=41),19 (46.3) Number (%) of patients
same,"Mucositis, CTCAE grade >=3",All 50mg BD solution (N=41),1 (2.4) Number (%) of patients
same,"Nausea, Any grade",All 50mg BD solution (N=41),21 (51.2) Number (%) of patients
same,"Nausea, CTCAE grade 1-2",All 50mg BD solution (N=41),19 (46.3) Number (%) of patients
same,"Nausea, CTCAE grade >=3",All 50mg BD solution (N=41),2 (4.9) Number (%) of patients
same,"Pruritus, Any grade",All 50mg BD solution (N=41),13 (31.7) Number (%) of patients
same,"Pruritus, CTCAE grade 1-2",All 50mg BD solution (N=41),13 (31.7) Number (%) of patients
same,"Pruritus, CTCAE grade >=3",All 50mg BD solution (N=41),0 Number (%) of patients
same,"Rash, Any grade",All 50mg BD solution (N=41),17 (41.5) Number (%) of patients
same,"Rash, CTCAE grade 1-2",All 50mg BD solution (N=41),15 (36.6) Number (%) of patients
same,"Rash, CTCAE grade >=3",All 50mg BD solution (N=41),2 (4.9) Number (%) of patients
same,"Vomiting, Any grade",All 50mg BD solution (N=41),12 (29.3) Number (%) of patients
same,"Vomiting, CTCAE grade 1-2",All 50mg BD solution (N=41),11 (26.8) Number (%) of patients
same,"Vomiting, CTCAE grade >=3",All 50mg BD solution (N=41),1 (2.4) Number (%) of patients
same,"Anemia, Any grade",Part A 25mg BD solution (N=6),0 Number (%) of patients
same,"Anemia, CTCAE grade 1-2",Part A 25mg BD solution (N=6),0 Number (%) of patients
same,"Anemia, CTCAE grade >=3",Part A 25mg BD solution (N=6),0 Number (%) of patients
same,"Back pain, Any grade",Part A 25mg BD solution (N=6),0 Number (%) of patients
same,"Back pain, CTCAE grade 1-2",Part A 25mg BD solution (N=6),0 Number (%) of patients
same,"Back pain, CTCAE grade >=3",Part A 25mg BD solution (N=6),0 Number (%) of patients
same,"Constipation, Any grade",Part A 25mg BD solution (N=6),2 (33.3) Number (%) of patients
same,"Constipation, CTCAE grade 1-2",Part A 25mg BD solution (N=6),2 (33.3) Number (%) of patients
same,"Constipation, CTCAE grade >=3",Part A 25mg BD solution (N=6),0 Number (%) of patients
same,"Cough, Any grade",Part A 25mg BD solution (N=6),3 (50.0) Number (%) of patients
same,"Cough, CTCAE grade 1-2",Part A 25mg BD solution (N=6),3 (50.0) Number (%) of patients
same,"Cough, CTCAE grade >=3",Part A 25mg BD solution (N=6),0 Number (%) of patients
same,"Decreased appetite, Any grade",Part A 25mg BD solution (N=6),3 (50.0) Number (%) of patients
same,"Decreased appetite, CTCAE grade 1-2",Part A 25mg BD solution (N=6),3 (50.0) Number (%) of patients
same,"Decreased appetite, CTCAE grade >=3",Part A 25mg BD solution (N=6),0 Number (%) of patients
same,"Diarrhea, Any grade",Part A 25mg BD solution (N=6),2 (33.3) Number (%) of patients
same,"Diarrhea, CTCAE grade 1-2",Part A 25mg BD solution (N=6),2 (33.3) Number (%) of patients
same,"Diarrhea, CTCAE grade >=3",Part A 25mg BD solution (N=6),0 Number (%) of patients
same,"Dry mouth, CTCAE grade >=3",Part A 25mg BD solution (N=6),0 Number (%) of patients
same,"Dyspnea, Any grade",Part A 25mg BD solution (N=6),1 (16.7) Number (%) of patients
same,"Dyspnea, CTCAE grade 1-2",Part A 25mg BD solution (N=6),1 (16.7) Number (%) of patients
same,"Dyspnea, CTCAE grade >=3",Part A 25mg BD solution (N=6),0 Number (%) of patients
same,"Fatigue, Any grade",Part A 25mg BD solution (N=6),3 (50.0) Number (%) of patients
same,"Fatigue, CTCAE grade 1-2",Part A 25mg BD solution (N=6),2 (33.3) Number (%) of patients
same,"Fatigue, CTCAE grade >=3",Part A 25mg BD solution (N=6),1 (16.7) Number (%) of patients
same,"Hypokalemia, Any grade",Part A 25mg BD solution (N=6),2 (33.3) Number (%) of patients
same,"Hypokalemia, CTCAE grade 1-2",Part A 25mg BD solution (N=6),2 (33.3) Number (%) of patients
same,"Hypokalemia, CTCAE grade >=3",Part A 25mg BD solution (N=6),0 Number (%) of patients
same,"Lower respiratory tract infection, Any grade",Part A 25mg BD solution (N=6),1 (16.7) Number (%) of patients
same,"Lower respiratory tract infection, CTCAE grade 1-2",Part A 25mg BD solution (N=6),0 Number (%) of patients
same,"Lower respiratory tract infection, CTCAE grade >=3",Part A 25mg BD solution (N=6),1 (16.7) Number (%) of patients
same,"Mucositis, Any grade",Part A 25mg BD solution (N=6),2 (33.3) Number (%) of patients
same,"Mucositis, CTCAE grade 1-2",Part A 25mg BD solution (N=6),2 (33.3) Number (%) of patients
same,"Mucositis, CTCAE grade >=3",Part A 25mg BD solution (N=6),0 Number (%) of patients
same,"Nausea, Any grade",Part A 25mg BD solution (N=6),2 (33.3) Number (%) of patients
same,"Nausea, CTCAE grade 1-2",Part A 25mg BD solution (N=6),2 (33.3) Number (%) of patients
same,"Nausea, CTCAE grade >=3",Part A 25mg BD solution (N=6),0 Number (%) of patients
same,"Pruritus, Any grade",Part A 25mg BD solution (N=6),0 Number (%) of patients
same,"Pruritus, CTCAE grade 1-2",Part A 25mg BD solution (N=6),0 Number (%) of patients
same,"Pruritus, CTCAE grade >=3",Part A 25mg BD solution (N=6),0 Number (%) of patients
same,"Rash, Any grade",Part A 25mg BD solution (N=6),1(16.7) Number (%) of patients
same,"Rash, CTCAE grade 1-2",Part A 25mg BD solution (N=6),1(16.7) Number (%) of patients
same,"Rash, CTCAE grade >=3",Part A 25mg BD solution (N=6),0 Number (%) of patients
same,"Vomiting, Any grade",Part A 25mg BD solution (N=6),0 Number (%) of patients
same,"Vomiting, CTCAE grade 1-2",Part A 25mg BD solution (N=6),0 Number (%) of patients
same,"Vomiting, CTCAE grade >=3",Part A 25mg BD solution (N=6),0 Number (%) of patients
same,"Anemia, Any grade",Part A 70mg BD solution (N=5),1 (20.0) Number (%) of patients
same,"Anemia, CTCAE grade 1-2",Part A 70mg BD solution (N=5),0 Number (%) of patients
same,"Anemia, CTCAE grade >=3",Part A 70mg BD solution (N=5),1 (20.0) Number (%) of patients
same,"Back pain, Any grade",Part A 70mg BD solution (N=5),0 Number (%) of patients
same,"Back pain, CTCAE grade 1-2",Part A 70mg BD solution (N=5),0 Number (%) of patients
same,"Back pain, CTCAE grade >=3",Part A 70mg BD solution (N=5),0 Number (%) of patients
same,"Constipation, Any grade",Part A 70mg BD solution (N=5),0 Number (%) of patients
same,"Constipation, CTCAE grade 1-2",Part A 70mg BD solution (N=5),0 Number (%) of patients
same,"Constipation, CTCAE grade >=3",Part A 70mg BD solution (N=5),0 Number (%) of patients
same,"Cough, Any grade",Part A 70mg BD solution (N=5),1 (20.0) Number (%) of patients
same,"Cough, CTCAE grade 1-2",Part A 70mg BD solution (N=5),1 (20.0) Number (%) of patients
same,"Cough, CTCAE grade >=3",Part A 70mg BD solution (N=5),0 Number (%) of patients
same,"Decreased appetite, Any grade",Part A 70mg BD solution (N=5),2 (40.0) Number (%) of patients
same,"Decreased appetite, CTCAE grade 1-2",Part A 70mg BD solution (N=5),2 (40.0) Number (%) of patients
same,"Decreased appetite, CTCAE grade >=3",Part A 70mg BD solution (N=5),0 Number (%) of patients
same,"Diarrhea, Any grade",Part A 70mg BD solution (N=5),3 (60.0) Number (%) of patients
same,"Diarrhea, CTCAE grade 1-2",Part A 70mg BD solution (N=5),3 (60.0) Number (%) of patients
same,"Diarrhea, CTCAE grade >=3",Part A 70mg BD solution (N=5),0 Number (%) of patients
same,"Dry mouth, Any grade",Part A 70mg BD solution (N=5),0 Number (%) of patients
same,"Dry mouth, CTCAE grade 1-2",Part A 70mg BD solution (N=5),0 Number (%) of patients
same,"Dry mouth, CTCAE grade >=3",Part A 70mg BD solution (N=5),0 Number (%) of patients
same,"Dyspnea, Any grade",Part A 70mg BD solution (N=5),1 (20.0) Number (%) of patients
same,"Dyspnea, CTCAE grade 1-2",Part A 70mg BD solution (N=5),1 (20.0) Number (%) of patients
same,"Dyspnea, CTCAE grade >=3",Part A 70mg BD solution (N=5),0 Number (%) of patients
